Assay results taken from publication PMC7245562 (Cell chemical biology, 2020).
≈ marks a conversion by molar mass, not a printed value. Values belong to the compound of their own block, whether it stands above or below them.

Experiments:
[1] = target: T1, R12Y/G67S/Y100I ecDHFR fused to yellow fluorescent protein (ecDHFR.YFP) (Escherichia coli, UniProt P0ABQ4, G67S/R12Y/Y100I); type: cell-based; details: for stabilization of ecDHFR.YFP: 10 μM final concentration, 24 h treatment; for dose-dependent stabilization of ecDHFR.YFP: dose-response, 24 h
[2] = target: R12Y/G67S/I94L/Y100I ecDHFR.YFP (Escherichia coli, UniProt P0ABQ4, G67S/I94L/R12Y/Y100I); type: cell-based; details: 24 h, vs control ecDHFR DD
[3] = target: R12Y/M16L/G67S/Y100I ecDHFR.YFP (Escherichia coli, UniProt P0ABQ4, G67S/M16L/R12Y/Y100I); type: cell-based; details: 24 h, vs control ecDHFR DD
[4] = target: T2, ecDHFR DD firefly luciferase (ecDHFR.FLuc) (Escherichia coli, UniProt P0ABQ4, G67S/R12Y/Y100I); type: in vivo, BALB/c mice; details: 1 mg (50 mg/kg) oral gavage, 6 h, mean ± SEM
[5] = target: R12Y/F31L/G67S/Y100I ecDHFR.YFP (Escherichia coli, UniProt P0ABQ4, F31L/G67S/R12Y/Y100I); type: cell-based; details: 24 h, vs control ecDHFR DD
[6] = target: I5F/R12Y/G67S/Y100I ecDHFR.YFP (Escherichia coli, UniProt P0ABQ4, G67S/I5F/R12Y/Y100I); type: cell-based; details: 24 h, vs control ecDHFR DD
[7] = target: T2, ecDHFR DD firefly luciferase (ecDHFR.FLuc); type: in vivo, BALB/c mice; details: 1 mg (50 mg/kg) oral gavage, 6 h, mean ± SEM; remark: listed apart in the source
[8] = target: T3, recombinant hsDHFR (Homo sapiens, UniProt P00374); experiment: Human DHFR; type: biochemical; details: 1 μM compound
T3 sequence (P00374 1-187): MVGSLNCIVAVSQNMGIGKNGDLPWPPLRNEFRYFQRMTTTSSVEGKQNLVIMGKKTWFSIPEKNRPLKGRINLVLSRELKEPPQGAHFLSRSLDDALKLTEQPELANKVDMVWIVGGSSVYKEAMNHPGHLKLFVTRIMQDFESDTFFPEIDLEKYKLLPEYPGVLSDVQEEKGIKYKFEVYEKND

[9] = tested on: RN4220 S. aureus; experiment: Bacterial growth assay, Gram-positive S. aureus; type: cell-based; details: concentrations up to 50 μM
[10] = tested on: Iba1(+) microglia; experiment: Iba1; type: in vivo, BALB/c mice; details: 1 mg per day for 7 days, oral gavage
[11] = target: ecDHFR.YFP (Escherichia coli, UniProt P0ABQ4, G67S/R12Y/Y100I); type: cell-based; details: for stabilization of ecDHFR after washout: 48 h post washout; for "Off" kinetics compared with TMP: 1 and 10 μM
[12] = tested on: BW25113 wild-type E. coli; experiment: Bacterial growth assay, Gram-negative E. coli; details: Escherichia coli, BW25113, read-out: minimal inhibitory concentration [MIC]
[13] = target: T1, R12Y/G67S/Y100I ecDHFR fused to yellow fluorescent protein (ecDHFR.YFP); type: cell-based; details: 5 μM, 24 h

SMILES: Nc1ccnc(N)n1 [2,4-DAP, 2,4-diaminopyrimidine]
stabilization of ecDHFR.YFP [1]: insufficient to stabilize

SMILES: Nc1ncc(C=O)c(N)n1 [2,4-DAP-5C, 2,4-diaminopyrimidine-5-carbaldehyde]
stabilization of ecDHFR.YFP [1]: insufficient to stabilize

SMILES: Nc1nc(N)c2ccccc2n1 [2,4-DAQ, 2,4-diaminoquinazoline]
responsiveness to stabilization, Ile94 (I94L) mutant [2]: eliminated all responsiveness
effect of Met16 (M16L) mutation on stabilization [3]: did not significantly disrupt
fold change in luminescence after treatment, eye [4]: 1.6 ± 0.3 fold
responsiveness to stabilization, Phe31 (F31L) mutant [5]: eliminated all responsiveness
responsiveness to stabilization, Ile5 (I5F) mutant [6]: eliminated all responsiveness
fold change in bioluminescent signal, liver [7]: 5.3 ± 2.1 fold

SMILES: Nc1nc2ccccc2c(=O)[nH]1 [2-AQ-4O, 2-amino-3H-quinazolin-4-one]
stabilization of ecDHFR.YFP [1]: did not allow for stabilization

SMILES: Nc1nc(N)c2nc(-c3cccc(Cl)c3)c(N)nc2n1 [Epiblastin A]
inhibition of hsDHFR activity [8]: intermediately inhibited
S. aureus growth inhibition [9]: did not completely inhibit growth

SMILES: COc1ccc(COc2ccc(Cc3cnc(N)nc3N)cc2OC)cc1 [GW2580]
reduction of Iba1(+) microglia, inner retina [10]: 33%
reduction of Iba1(+) microglia, outer retina [10]: 32%
fold change in luminescence after treatment, eye [4]: 8.6 ± 1.7 fold
MIC ([9]; LB broth, endpoint 19-24 h): ~ 50 μM

SMILES: C#CCC(Cc1cnc2nc(N)nc(N)c2n1)c1ccc(C(=O)N[C@@H](CCC(=O)O)C(=O)O)cc1 (stereo partly shown) [Pralatrexate]
stabilization of ecDHFR after washout [11]: continued to stabilize ecDHFR
time of peak ecDHFR.YFP fluorescence ([11]; all concentrations used (0.1, 1, 10 μM)): 48 h
fold change in luminescence after treatment, eye [4]: 3.5 ± 0.7 fold
inhibition of hsDHFR activity [8]: completely inhibited
dose-dependent stabilization of ecDHFR.YFP [1]: readily stabilized
fold change in bioluminescent signal, liver [7]: 7.1 ± 1.3 fold

SMILES: Nc1nc(N)c2nc(-c3ccccc3)c(N)nc2n1 [Triamterene]
fold change in luminescence after treatment, eye [4]: 3.1 ± 0.6 fold
inhibition of hsDHFR activity [8]: intermediately inhibited
fold change in bioluminescent signal, liver [7]: 1.9 ± 0.2 fold

inhibition of hsDHFR activity [8]: intermediately inhibited
SMILES: CC1(C)N=C(N)N=C(N)N1OCCCOc1cc(Cl)c(Cl)cc1Cl [WR99210]

SMILES: Nc1nc(N)c2nc(CNc3ccc(C(=O)N[C@@H](CCC(=O)O)C(=O)O)cc3)cnc2n1 [aminopterin]
stabilization of ecDHFR after washout [11]: continued to stabilize ecDHFR
inhibition of hsDHFR activity [8]: completely inhibited
dose-dependent stabilization of ecDHFR.YFP [1]: readily stabilized

SMILES: COc1ccc(Cc2cnc(N)nc2N)cc1OC [diaveridine]
"Off" kinetics compared with TMP [11]: noticeably quicker
MIC [12]: ~16.6 µM (≈ 4.32 µg/mL)

SMILES: COc1cc(C)c(Cc2cnc(N)nc2N)cc1OC [ormetoprim]
"Off" kinetics, time after removal ([11]; 0.1 μM): 2 to 4 h
"Off" kinetics compared with TMP [11]: noticeably quicker
MIC [12]: ~16.6 µM (≈ 4.55 µg/mL)

SMILES: Nc1nc2[nH]cc(CCc3ccc(C(=O)N[C@@H](CCC(=O)O)C(=O)O)cc3)c2c(=O)[nH]1 [pemetrexed]
stabilization of ecDHFR.YFP [1]: did not allow for stabilization

SMILES: [H]/N=C(\N/C(=N/[H])Nc1ccc(Cl)cc1)NC(C)C [proguanil]
stabilization of ecDHFR.YFP [1]: no stabilization capabilities

SMILES: Cc1cc(/C=C/c2ccc3cc(N(C)C)ccc3[n+]2C)c(C)n1-c1ccccc1 [pyrvinium pamoate]
hit follow-up in ARPE-19 cells lacking ecDHFR.YFP [13]: fluorescent false positives

SMILES: Cc1nc2ccc(CN(C)c3ccc(C(=O)N[C@@H](CCC(=O)O)C(=O)O)s3)cc2c(=O)[nH]1 [raltitrexed]
stabilization of ecDHFR.YFP [1]: did not allow for stabilization
